Each compound was assayed on Plasmodium yoelii yoelii (assay: Antimalarial activity against liver stages of Plasmodium yoelii yoelii). Settings: not given.
Assay type: functional, organism-based

CC(C)Nc1cccnc1N1CCN(C(=O)c2cc3cc(NS(C)(=O)=O)ccc3[nH]2)CC1 [DELAVIRDINE] and COCC(=O)O[C@]1(CCN(C)CCCc2nc3ccccc3[nH]2)CCc2cc(F)ccc2[C@@H]1C(C)C [MIBEFRADIL] are within 1.5-fold of each other in IC50: 0.000846 µM for the first, 0.000873 µM for the second.

Going from CC(CCc1ccc(O)cc1)NCCc1ccc(O)c(O)c1 (stereo unspecified) [DOBUTAMINE] to C=CC(C)(C)c1cc(/C=C/C(=O)c2ccc(O)cc2)c(OC)cc1O [LICOAGROCHACONE A], the IC50 falls from 0.0037 µM to 0.000927 µM (4-fold).

First: CC[C@H](C)[C@H](NC(=O)[C@H]([C@@H](C)CC)N(C)C(C)=O)C(=O)N[C@H](C(=O)N[C@@H](CC(C)C)C(=O)[C@@]1(C)CO1)[C@@H](C)O [EPOXOMYCIN]
Second: CC[C@]1(O)C[C@@H]2CN(CCc3c([nH]c4ccccc34)[C@@](C(=O)OC)(c3cc4c(cc3OC)N(C)[C@H]3[C@@](O)(C(=O)OC)[C@H](OC(C)=O)[C@]5(CC)C=CCN6CC[C@]43[C@@H]65)C2)C1 [VINBLASTINE]
The IC50 of the first is 2-fold lower: 3.95 µM for the first, 7.95 µM for the second. The first is the more potent here.

CC(N)C12CC3CC(CC(C3)C1)C2 (stereo unspecified) [RIMANTADINE] showed an IC50 of 0.0356 µM.

What follows are compounds tested on Plasmodium yoelii (assay: Antimalarial activity against liver stages of Plasmodium yoelii 265 BY infected in Swiss mouse after 48 hrs by fluorescence microscopy). Settings: not given.
Assay type: functional, organism-based

COc1cccc(OC)c1OC(C)[C@@H](O)c1ccc2c(c1)OC(F)(F)O2 (mixture of isomers; 144) and COc1cc(C)cc(OC)c1OC(C)[C@@H](O)c1ccc2c(c1)OC(F)(F)O2 (mixture of isomers; 145) are within 1.5-fold of each other in IC50: 20.2 µM for the first, 19 µM for the second.

Compound COc1cc(C)cc(OC)c1OC(C)[C@@H](O)c1ccc2c(c1)OC(F)(F)O2 (mixture of isomers; 146) has an IC50 of 5.62 µM.

Same assay, conditions: Plasmodium yoelii, 265 BY, 48 h

Going from COc1cc([C@H](O)[C@@H](C)Oc2c(OC)cccc2OC)cc(OC)c1OC to COc1cc([C@H](O)[C@H](C)Oc2c(OC)cccc2OC)cc(OC)c1OC, the IC50 rises from 2.52 µM to 28.6 µM (11-fold). The first is the more potent here.

Compared with COc1cc([C@H](O)[C@H](C)Oc2c(OC)cc(C)cc2OC)cc(OC)c1OC, COc1cc([C@H](O)[C@@H](C)Oc2c(OC)cc(C)cc2OC)cc(OC)c1OC is 11000-fold lower in IC50: 50.1 µM for the first, 0.0045 µM for the second. The second is the more potent here.

COc1cc([C@H](O)[C@H](C)Oc2c(OC)cc(-c3ccccc3)cc2OC)cc(OC)c1OC and COc1cc([C@H](O)[C@@H](C)Oc2c(OC)cc(-c3ccccc3)cc2OC)cc(OC)c1OC are within 1.5-fold of each other in IC50: 3.54 µM for the first, 3.61 µM for the second.

COc1cccc(OC)c1OC(C)[C@@H](O)c1ccc2c(c1)OC(F)(F)O2 (mixture of isomers; 143) showed an IC50 of 20.1 µM.

The compounds below were run on Plasmodium cynomolgi (assay: Antimalarial activity against Plasmodium cynomolgi M infected in rhesus monkey administered as po qd for 7 days). Settings: in Macaca mulatta, 168 h.
Assay type: functional

First: CCC(CCCN)Nc1cc(OC)cc2c(C)ccnc12 (stereo unspecified)
Second: COc1cc(NC(C)CCCN)c2nccc(C)c2c1 (stereo unspecified)
The ED50 of the first is 2.7-fold lower: 0.074 mg/kg for the first, 0.2 mg/kg for the second.

COc1cc(NC(C)CCCN)c2ncccc2c1Oc1cccc(C(F)(F)F)c1 (stereo unspecified) and COc1cc(NC(C)CCCN)c2nc(C)ccc2c1Oc1cccc(C(F)(F)F)c1 (stereo unspecified) are within 1.5-fold of each other in ED50: 0.25 mg/kg for the first, 0.36 mg/kg for the second.

COc1cc(NCCCCC(C)N)c2nccc(C)c2c1 (stereo unspecified) and COc1cc(NCCCC(C)N)c2nccc(C)c2c1 (stereo unspecified) are within 1.5-fold of each other in ED50: 0.12 mg/kg for the first, 0.11 mg/kg for the second.

COc1cc(NC(C)CCCN)c2nc(C)ccc2c1Oc1ccc(F)cc1 (stereo unspecified) and COc1cc(NC(C)CCCN)c2nc(C)ccc2c1Oc1ccc(Cl)cc1 (stereo unspecified) are within 1.5-fold of each other in ED50: 0.22 mg/kg for the first, 0.19 mg/kg for the second.

COc1cc(NCCC(C)N)c2nccc(C)c2c1OC (stereo unspecified) and COc1cc(NC(C)CCCN)c2nccc(C)c2c1OC (stereo unspecified) are within 1.5-fold of each other in ED50: 0.12 mg/kg for the first, 0.098 mg/kg for the second.

Compared with COc1cc(NCCCC(C)N)c2nc(C)ccc2c1 (stereo unspecified), COc1cc(NC(C)CCCN)c2nc(C)ccc2c1 (stereo unspecified) is 1.8-fold higher in ED50: 0.21 mg/kg for the first, 0.38 mg/kg for the second.

First: CCN(CC)CCCCC(C)Nc1cc(OC)cc2c(C)ccnc12 (stereo unspecified)
Second: CCN(CC)CCCNc1cc(OC)cc2c(C)ccnc12
The ED50 of the first is 2.2-fold lower: 0.23 mg/kg for the first, 0.51 mg/kg for the second.

First: COc1cc(NC(C)CCCN)c2nc(C)ccc2c1F (stereo unspecified)
Second: COc1cc(NC(C)CCCN)c2nccc(C)c2c1F (stereo unspecified)
The ED50 of the first is 1.7-fold lower: 0.21 mg/kg for the first, 0.36 mg/kg for the second.

COc1cc(NC(C)CCCN)c2nc(OCc3ccc(F)cc3)ccc2c1 (stereo unspecified) and COc1cc(NC(C)CCCN)c2nc(OCc3ccc(C(F)(F)F)cc3)ccc2c1 (stereo unspecified) are within 1.5-fold of each other in ED50: 0.35 mg/kg for the first, 0.5 mg/kg for the second.

COc1cc(NC(C)CCCN)c2nc(N)ccc2c1 (stereo unspecified) and COc1cc(NC(C)CCCN)c2ncccc2c1 (stereo unspecified) [PRIMAQUINE] are within 1.5-fold of each other in ED50: 0.36 mg/kg for the first, 0.38 mg/kg for the second.

CCC(N)CCCNc1cc(OC)cc2c(C)ccnc12 (stereo unspecified) and COc1cc(NCCCCCNC(C)C)c2nccc(C)c2c1 are within 1.5-fold of each other in ED50: 0.48 mg/kg for the first, 0.5 mg/kg for the second.

COc1cc(NC(C)CCCNC(C)C)c2nccc(C)c2c1 (stereo unspecified) and COc1cc(NC(C)CCCCNC(C)C)c2nccc(C)c2c1 (stereo unspecified) are within 1.5-fold of each other in ED50: 0.32 mg/kg for the first, 0.35 mg/kg for the second.

CCc1ccnc2c(NC(C)CCCN)cc(OC)cc12 (stereo unspecified) and C=Cc1ccnc2c(NC(C)CCCN)cc(OC)cc12 (stereo unspecified) are within 1.5-fold of each other in ED50: 0.45 mg/kg for the first, 0.5 mg/kg for the second.

Going from COc1cc(NC(C)CCCN)c2ncccc2c1OC (stereo unspecified) to CCOc1c(OC)cc(NC(C)CCCN)c2ncccc12 (stereo unspecified), the ED50 falls from 0.44 mg/kg to 0.18 mg/kg (2.4-fold).

Going from COc1cc(NCCCC(C)N)c2ncccc2c1Oc1cccc(C(F)(F)F)c1 (stereo unspecified) to COc1cc(NC(C)CCCN)c2nccc(C)c2c1Oc1cccc(C(F)(F)F)c1 (stereo unspecified), the ED50 falls from 0.5 mg/kg to 0.11 mg/kg (4.5-fold).

Going from COc1cc(NC(C)CCCN)c2ncccc2c1C(=O)C(F)(F)F (stereo unspecified) to COc1cc(NC(C)CCCN)c2ncccc2c1Oc1ccc(F)cc1 (stereo unspecified), the ED50 falls from 0.44 mg/kg to 0.23 mg/kg (1.9-fold).

COc1cc(NC(C)CCCN)c2nc(C)cc(C)c2c1 (stereo unspecified) and CCN(CC)CCCNc1cc(OC)cc2c(C)cc(C)nc12 are the same in ED50: 0.36 mg/kg for the first, 0.36 mg/kg for the second.

With CCN(CC)CCCCCCNc1cc(OC)cc2c(C)ccnc12 [SITAMAQUINE] the ED50 was 0.35 mg/kg.

These compounds were tested on Plasmodium berghei (assay: Antimalarial activity against liver stages of Plasmodium berghei in human HepG2 cells assessed as growth inhibition at 10 ug/mL). Settings: read-out: GI.
Assay type: functional

Compared with COc1c(-c2c(C)cc(OC)c3c(O)cccc23)ccc2c1[C@@H](C)N[C@H](C)C2, COc1cccc2c(-c3ccc4c(c3O)[C@@H](C)N[C@H](C)C4)c(C)cc(OC)c12 [DIONCOPHYLLINE A] is higher in inhibition of growth at 10 µg/mL: 48.8% for the first, 67.5% for the second.

Going from COc1ccc(-c2c(C)cc(OC)c3c(O)cccc23)c2c1[C@@H](C)N(C=O)[C@H](C)C2 to COc1cc(C)c(-c2ccc(OC(=O)c3ccccc3)c3c2C[C@@H](C)N(C=O)[C@@H]3C)c2cccc(O)c12, the inhibition of growth at 10 µg/mL falls from 98.3% to 52.7%.

Going from COc1c2c(cc(O)c1-c1c(C)cc(OC)c3c(OC)cccc13)C[C@@H](C)N=C2C [ANCISTROBARTERINE A] to COc1c(C)nc(C)c2c(OC)c(-c3c(C)cc(OC)c4c(OC)cccc34)ccc12 [DIONCOPHYLLACINE A], the inhibition of growth at 10 µg/mL falls from 51.6% to 41.9%.

What follows are compounds tested on Plasmodium berghei (assay: Antimalarial activity against liver stages of Plasmodium berghei assessed as inhibition of cytochrome bc1 complex). Settings: not given.
Assay type: functional, organism-based

Going from CCCCCC[C@@H](C)CC1=C(O)C(=O)c2ccccc2C1=O to C[C@H](CCCCCC(F)(F)F)CC1=C(O)C(=O)c2ccccc2C1=O, the IC50 falls from 0.0962 µM to 0.0171 µM (5.6-fold). The second is the more potent here.

First: CCCCCC[C@@H](C)CC1=C(O)C(=O)c2c(C)cccc2C1=O
Second: Cc1cccc2c1C(=O)C(O)=C(C[C@H](C)CCCCCC(F)(F)F)C2=O
The IC50 of the first is 18-fold lower: 0.246 µM for the first, 4.45 µM for the second. The first is the more potent here.

Each compound was assayed on Plasmodium vivax (assay: Antimalarial activity against Plasmodium vivax assessed as effect on cure rate after 28 days). Settings: not given.
Assay type: functional

CCC[C@@H]1C[C@@H](C(=O)N[C@@H]([C@H]2O[C@H](SC)[C@H](O)[C@@H](O)[C@H]2O)[C@H](C)Cl)N(C)C1 [CLINDAMYCIN] and CN(C)[C@@H]1C(O)=C(C(N)=O)C(=O)[C@@]2(O)C(O)=C3C(=O)c4c(O)cccc4[C@@](C)(O)[C@H]3C[C@@H]12 [TETRACYCLINE] are the same in Activity: 56% for the first, 56% for the second.

Each compound was assayed on Plasmodium yoelii (assay: Antimalarial activity against liver stages of Plasmodium yoelii 17XNL expressing GFP infected in human HepG2 cells transfected with CD81 assessed as growth inhibition of hepatic parasite after 40 hrs by flow cytometry). Settings: not given.
Assay type: functional, organism-based

Going from Oc1c(Cl)cc(Cl)c(Cl)c1Cc1c(O)c(Cl)cc(Cl)c1Cl [HEXACHLOROPHENE] to CO[C@H]1/C=C/O[C@@]2(C)Oc3c(C)c(O)c4c(O)c(c(/C=N/N5CCN(C)CC5)c(O)c4c3C2=O)NC(=O)/C(C)=C\C=C\[C@H](C)[C@H](O)[C@@H](C)[C@@H](O)[C@@H](C)[C@H](OC(C)=O)[C@@H]1C [RIFAMPIN], the IC50 rises from 4 µM to 22.2 µM (5.5-fold). The first is the more potent here.

What follows are compounds tested on Plasmodium falciparum (assay: Antimalarial activity against liver stages of Plasmodium falciparum NF54 infected in human HepG2 cells after 6 days by fluorescence microscopy). Settings: NF54, HepG2, 144 h.
Assay type: functional, organism-based

First: COc1cc([C@H](O)[C@@H](C)Oc2c(OC)cc(C)cc2OC)cc(OC)c1OC
Second: COc1cc([C@H](O)[C@H](C)Oc2c(OC)cc(-c3ccccc3)cc2OC)cc(OC)c1OC
The IC50 of the first is 19-fold higher: 0.38 µM for the first, 0.02 µM for the second.

With COc1cc([C@H](O)[C@@H](C)Oc2c(OC)cc(-c3ccccc3)cc2OC)cc(OC)c1OC the IC50 was 0.007 µM.

Each compound was assayed on Plasmodium berghei (assay: Antimalarial activity against liver stages of Plasmodium berghei). Settings: not given.
Assay type: functional, organism-based

Compared with COc1cc(NC(C)CCCNCc2ccc(CO[C@H]3O[C@@H]4O[C@@]5(C)CC[C@H]6[C@H](C)CCC([C@H]3C)[C@@]46OO5)cc2)c2ncccc2c1 (stereo partly specified), COc1cc(NC(C)CCCN)c2ncccc2c1 (stereo unspecified) [PRIMAQUINE] is 84-fold higher in IC50: 0.155 µM for the first, 13 µM for the second.

From ChEMBL document CHEMBL2086285, “Targeting the liver stage of malaria parasites: a yet unmet goal” (J Med Chem, 2012)
